According to publication PMC5740381 (Antimicrobial Agents and Chemotherapy, 2017):
Like-named read-outs stand apart in the source and are kept apart here.

How the values were obtained:
[1] = test system: HCV replicons with genotype 2a patient proteases; test: Transient replicon assay with proteases from HCV-infected patients; assay type: cell-based; details: Hepatitis C virus, subtype 2a, no polymorphism, 4 samples
Source text: […]. Each of the NS3 gene sequences from genotypes 1, 2, and 4, with the exception of two genotype 2b sequences, was derived from serum or plasma from an HCV-infected patient by bulk PCR amplification, producing a population of sequences representing the viral quasispecies. Two genotype 2b sequences were synthesized based on the consensus sequences of the respective samples. One genotype 3a sequence was synthesized based on a consensus sequence from the sequences available in the Los Alamos HCV sequence database, and another genotype 3a sequence was a clonal sequence derived from a patient sample. The genotype 5a sequence (strain SA13) was synthesized based on the published sequence of the HCV isolate ([48]).
A genotype 2a JFH-1 replicon shuttle vector was used to generate transient replicons containing NS3 from clinical samples from genotype 2a- and genotype 2b-infected patients. The region encoding the first 227 amino acids of NS3 from samples from genotype 2a- and 2b-infected patients was used to replace the corresponding region in the genotype 2a JFH-1 replicon shuttle vector. The genotype 2a JFH-1 replicon shuttle vector was also used to generate a transient replicon containing a region encoding full-length NS3 through the first 39 amino acids of NS5B from genotype 5a (strain SA13). […]

HIV-1 IIIB strain = test: HIV-1 antiviral cytoprotection assay, CEM-SS cells; assay type: cell-based, human immunodeficiency virus type 1; details: Human immunodeficiency virus 1, IIIB, read-out: Mean EC50 ± SD
HCV genotype 1 = details: 3-day monotherapy, daily doses of 100 to 700 mg, genotype 1 treatment-naive patients; cited from earlier work
[2] = test system: HCV replicons with genotype 4a patient proteases; test: Transient replicon assay with proteases from HCV-infected patients; assay type: cell-based; details: Hepatitis C virus
Source text: Each of the NS3 gene sequences from genotypes 1, 2, and 4, with the exception of two genotype 2b sequences, was derived from serum or plasma from an HCV-infected patient by bulk PCR amplification, producing a population of sequences representing the viral quasispecies. Two genotype 2b sequences were synthesized based on the consensus sequences of the respective samples. One genotype 3a sequence was synthesized based on a consensus sequence from the sequences available in the Los Alamos HCV sequence database, and another genotype 3a sequence was a clonal sequence derived from a patient sample. The genotype 5a sequence (strain SA13) was synthesized based on the published sequence of the HCV isolate ([48]).
Transient replicons containing NS3 from clinical samples from HCV genotype 1a- and 1b-infected patients were described previously ([28]).
For the analysis of NS3 sequences from patients, we defined a polymorphism to be an amino acid difference in the sequence of a baseline sample relative to the sequence of the appropriate HCV subtype reference sequence: genotype 1a H77 (GenBank accession number NC_004102), genotype 1b Con1 (GenBank accession number AJ238799), genotype 2a JFH-1 (GenBank accession number AB047639), genotype 2b HC-J8 (GenBank accession number D10988), genotype 3a S52 (GenBank accession number GU814263), genotype 4a ED43 (GenBank accession number GU814265), genotype 4d QC382 (GenBank accession number FJ462437), and genotype 5a SA13 (GenBank accession number AF064490). […] All DNA sequencing was performed by the Sanger sequencing method.

Cathepsin B = target: T1, Cathepsin B (Homo sapiens, UniProt P07858); test: Human protease biochemical assay; details: read-out: Mean IC50 ± SD
T1 construct: purchased Sigma-Aldrich
Experimental: (§1) […]; catalog number M9771; Sigma-Aldrich), and 0.05 U/ml elastase (excitation wavelength = 370 nm, emission wavelength = 460 nm); (ii) for chymase, 0.4 M Tris, pH 8.0, 1.8 M NaCl, 9% dimethyl sulfoxide, 0.4 mM substrate (Suc-AAF-AMC; catalog number S8758; Sigma-Aldrich), and 0.063 U/ml chymase (excitation wavelength = 370 nm, emission wavelength = 460 nm); (iii) for cathepsin B, 50 mM MES (morpholineethanesulfonic acid), pH 6.0, 50 mM NaCl, 2 mM EDTA, 0.1% Triton X-100, 0.4 mM substrate (Z-RR-AMC; catalog number C5429; Sigma-Aldrich), and 1.7 μg/ml cathepsin B (excitation wavelength = 370 nm, emission wavelength = 460 nm); (iv and v) for chymotrypsin types II and VII, 50 mM Tris, pH 8, 10 mM CaCl2, 0.1% Triton X-100, 0.25 mM substrate (Suc-AAF-AMC; catalog number S8758; Sigma-Aldrich), and 0.5 nM chymotrypsin type II or type VII (excitation wavelength = 370 nm, emission wavelength = 460 nm); (vi) for kallikrein, 50 mM Tris, pH 7.4, 0.5 mM EDTA, 0.05% Tween 20, 150 mM NaCl, 0.35 mM substrate (H-Pro-Phe-Arg-AMC; catalog number I-1295; Bachem), and 2 nM kallikrein (excitation wavelength = 355 nm, emission wavelength = 460 nm); and (vii) for urokinase, 50 mM Tris, pH 7.4, 0.15 M NaCl, 0.5% Pluronic F-68, 0.2 mM substrate (pyro-Glu Arg-p-nitroanilide-HCl; catalog number S-2444; Diapharma), and 3 nM urokinase (absorbance at 405 nm).

Urokinase = target: T2, Urokinase (Homo sapiens, UniProt P00749); test: Human protease biochemical assay; details: read-out: Mean IC50 ± SD
T2 construct: purchased Sigma-Aldrich
Experimental: as §1

Chymotrypsin type VII = target: T3, Chymotrypsin type VII (Bos taurus, UniProt P00766); test: Human protease biochemical assay; details: read-out: Mean IC50 ± SD
T3 construct: purchased Sigma-Aldrich
Experimental: as §1

Chymase = target: T4, Chymase (Homo sapiens, UniProt P23946); test: Human protease biochemical assay; details: read-out: Mean IC50 ± SD
T4 construct: purchased Sigma-Aldrich
Experimental: as §1

Chymotrypsin type II = target: T5, Chymotrypsin type II (Bos taurus, UniProt P00766); test: Human protease biochemical assay; details: read-out: Mean IC50 ± SD
T5 construct: purchased Sigma-Aldrich
Experimental: as §1

Elastase = target: T6, Elastase (Homo sapiens, UniProt P08246); test: Human protease biochemical assay; details: read-out: Mean IC50 ± SD
T6 construct: purchased Sigma-Aldrich
Experimental: as §1

T4 sequence (P23946 22-247): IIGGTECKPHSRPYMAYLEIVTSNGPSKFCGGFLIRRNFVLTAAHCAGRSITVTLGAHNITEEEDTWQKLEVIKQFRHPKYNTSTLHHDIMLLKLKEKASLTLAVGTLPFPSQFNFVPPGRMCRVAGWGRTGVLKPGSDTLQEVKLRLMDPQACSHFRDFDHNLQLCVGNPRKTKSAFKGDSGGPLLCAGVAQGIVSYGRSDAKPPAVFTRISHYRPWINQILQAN
T6 sequence (P08246 30-247 limits assumed): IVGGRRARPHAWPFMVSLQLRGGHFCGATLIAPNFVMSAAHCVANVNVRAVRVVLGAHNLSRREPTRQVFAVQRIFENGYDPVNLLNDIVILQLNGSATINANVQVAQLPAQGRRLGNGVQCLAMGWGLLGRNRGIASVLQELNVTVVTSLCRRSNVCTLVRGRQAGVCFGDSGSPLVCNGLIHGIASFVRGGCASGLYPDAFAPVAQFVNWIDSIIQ

CC(C)(C)[C@@H]1NC(=O)O[C@@H]2CCC[C@H]2OC/C=C/C(F)(F)c2nc3ccccc3nc2O[C@@H]2C[C@@H](C(=O)N[C@]3(C(=O)NS(=O)(=O)C4(C)CC4)C[C@H]3C(F)F)N(C2)C1=O [Glecaprevir, (3aR,7S,10S,12R,21E,24aR)-7-tert-butyl-N-[(1R,2R)-2-(difluoromethyl)-1-{[(1-methylcyclopropyl)sulfonyl]carbamoyl}cyclopropyl]-20,20-difluoro-5,8-dioxo-2,3,3a,5,6,7,8,11,12,20,23,24a-dodecahydro-1H,10H-9,12-methanocyclopenta[18,19][1,10,17,3,6]trioxadiazacyclononadecino[11,12-b]quinoxaline-10-carboxamide]
EC50 ([1]; read-out: EC50 Median): 1.6 nM
EC50 ([1]; read-out: EC50 Range): 0.66 to 1.9 nM
EC50 (HIV-1 IIIB strain): > 22000 nM
Mean maximal decrease in HCV plasma viral load from baseline (HCV genotype 1): 3.8 to 4.3 log10 IU/ml
EC50 ([2]; read-out: EC50 Median, subtype 4a, T54S, 1 sample): 0.44 nM
EC50 ([2]; read-out: EC50 Median, subtype 4a, no polymorphism, 5 samples): 0.39 nM
EC50 ([2]; read-out: EC50 Range, subtype 4a, no polymorphism, 5 samples): 0.31 to 0.55 nM
IC50 (Cathepsin B): > 200000 nM
IC50 (Urokinase): > 200000 nM
IC50 (Chymotrypsin type VII): > 200000 nM
IC50 (Chymase): > 200000 nM
IC50 (Chymotrypsin type II): > 200000 nM
IC50 (Elastase): > 200000 nM
